This is an account of results in ChEMBL document CHEMBL1144929, “Determination of conformer-specific partition coefficients in octanol/water systems” (J Med Chem, 2003).

Common to all, as to type: physicochemical
The nature of series [1]: Partition coefficient of t-rotamer in octanol water system.
The nature of series [2]: Partition coefficient of g-rotamer in octanol water system.
Series [3] can be described thus: Partition coefficient (logP). The conditions noted are these: octanol/water.
Series [4] is described as follows: Partition coefficient of h-rotamer in octanol water system.

As to `CC(C)(C)NCC(O)c1cc(Cl)c(N)c(Cl)c1` (centres undefined) [CLENBUTEROL], the logP in series [1] turned out to be 2.87; in series [2] it was 2.14; in series [3], 2.71; in series [4] it was 2.57.

In general, logP refers to the decadic logarithm of the partition coefficient of the neutral form, usually between octanol and water. A low value points to lower lipophilicity.
